Legend:
Format in all cases: in vivo
Male SD rats [1] = assay: Rat nicotine self administration, acute treatment
Procedure: Male SD rats were trained to self administer i.v. nicotine (0.03 mg/kg/inj) daily (Monday to Friday) in standard operant chambers with retractable levers (MED Associates, Inc) as previously published (Levin et al., 2003; Levin et al., 2007). During the daily 45 min session, rats received 0.05 ml infusion of 0.03 mg/kg/infusion of nicotine every time the active lever was pressed. A cue light and tone turned on for 0.5 sec together with the activation of a pump that delivered the nicotine solution. Daily sessions were run for at least 10 days before the initiation of drug testing. Solutions of compounds of Example 2 and Example 5 were prepared fresh daily in Formulation 2B: 25% PEG400/5% Vit E TPGS/1% SLS/69% water with 0.5% Methocel) for oral dosing. Compound of Example 2 doses were administered in a counterbalanced design for testing 1 hr before each nicotine session. Every rat received all drug doses and vehicle in a randomly assigned order. The oral drug administrations were made twice per week.
Compound of Example 5 was tested in a study using 4 independent groups. Each group received either oral vehicle or 1 of the 3 doses of compound of Example 5 (5, 10 or 30 mg-eq/kg). […] The 5 mg/kg dose was ineffective.

Male SD rats [2] = assay: Rat nicotine self administration, 7-day chronic treatment; conditions: 7 consecutive days
Procedure: Upon completion of the acute compound of Example 5 treatment study, the same animals were used to test the effect of 7-day chronic oral administration of compound of Example 5 in the nicotine self administration model. Rats were treated orally with compound of Example 5 (5, 10 or 30 mg-eq/kg) or vehicle 1 hr before nicotine self administration session for 7 consecutive days. […] Similar to the acute treatment, the 5 mg-eq/kg dose was ineffective (FIG. 7). […] Animals in nicotine self administration studies had to reach pre defined criteria (e.g. rat strain, minimum number of nicotine infusions, consistent baseline nicotine self administration throughout the study, patent iv catheters, etc.) to be included in analysis.

[3] = system: male Sprague Dawley (SD) rats; assay: Rat cocaine cue reinstatement; conditions: for inhibition of cocaine cue reinstatement vs vehicle: 1 hr before session
Procedure: Training of male Sprague Dawley (SD) rats had 3 separate stages. First, during self administration, animals were trained to lever press for cocaine with presentation of concomitant cues associated with drug delivery. Rats that reached criteria for addiction were included in the study. Afterward, during cue extinction, cocaine-cue dependent behavior was extinguished. Lastly, during cocaine cue reinstatement, the effect of compounds was tested on lever presses upon cue presentation (FIG. 2).
Rats were trained to self administer i.v. cocaine (0.35 mg/kg/injection) daily (Monday to Friday) in standard operant chambers with retractable levers (Coulbourn Instruments, PA). During the daily 2 hr session, rats received a 0.05 ml infusion of 0.35 mg/kg cocaine every time the active lever was pressed. A cue light and tone turned on for 2 sec together with activation of a pump that delivered the cocaine solution. Rats were required to maintain an infusion rate of ≥20+ per day for at least 10 days before being moved to extinction training.
During extinction sessions lever presses no longer produced cocaine infusion and cue light/tone presentation was absent. Rats received a maximum of 15 extinction sessions.
On the next day after reaching extinction criteria, rats were treated orally with vehicle (Formulation 2B: 25% PEG400/5% Vit E TPGS/1% SLS/69% water with 0.5% Methocel) or drug (compound of Example 2 or compound of Example 5) before the cue reinstatement session. Cue reinstatement began with a tone and cue light. This 2 hr session was identical to the self-administration session (cue light and tone present upon active lever press) except that no cocaine was delivered. The number of active lever presses was compared to extinction lever responding. This is considered a measure of reinstatement. The next day, rats were returned to extinction sessions for at least 2 or 3 more sessions. Rats then received a second and last reinstatement session with an opposite treatment to the one received on the first reinstatement session (vehicle or drug treatment). […] The light/tone presentation triggers this response and it is interpreted as a measure of reinstatement even though cocaine is not available.

O=C(NCc1ccc(-c2cc[nH]c(=O)c2)cc1)c1c(Cl)cccc1Cl [Compound 2, 2,6-dichloro-N-[4-(2-oxo-1,2-dihydro-pyridin-4-yl)-benzyl]-benzamide]
effect on number of nicotine infusions (Male SD rats [1]; 1 mg/kg oral): without effect
effect on number of nicotine infusions (Male SD rats [1]; 5 mg/kg oral): without effect

O=C(NCc1ccc(-c2ccn(COP(=O)(O)O)c(=O)c2)cc1)c1c(Cl)cccc1Cl [Compound 14, phosphoric acid mono-(4-{4-[(2,6-dichloro-benzoylamino)-methyl]-phenyl}-2-oxo-2H-pyridin-1-ylmethyl) ester]
effect on number of nicotine infusions (Male SD rats [2]; 5 mg-eq/kg oral): ineffective
inhibition of number of nicotine infusions vs vehicle (Male SD rats [2]; 10 mg-eq/kg oral): 48%
inhibition of number of nicotine infusions vs vehicle (Male SD rats [2]; 30 mg-eq/kg oral): 62%
effect on number of nicotine infusions (Male SD rats [1]; 5 mg/kg dose oral, independent groups): ineffective
inhibition of number of nicotine infusions vs vehicle (Male SD rats [1]; 10 mg-eq/kg oral, independent groups): 51%
inhibition of number of nicotine infusions vs vehicle (Male SD rats [1]; 30 mg-eq/kg oral, independent groups): 68%
effect on cocaine cue reinstatement ([3]; 2.5 mg-eq/kg oral, lowest dose tested): not significantly different from vehicle
inhibition of cocaine cue reinstatement vs vehicle ([3]; 2.5 mg/kg eq oral, N.S.): 30%
inhibition of cocaine cue reinstatement vs vehicle ([3]; 5 mg-eq/kg oral): 59%
inhibition of cocaine cue reinstatement vs vehicle ([3]; 10 mg-eq/kg oral): 55%
inhibition of cocaine cue reinstatement vs vehicle ([3]; 30 mg-eq/kg oral): 50%
